Source: US6395727B1, “Method of treating Bulimia Nervosa and related eating disorders by administration of atypical antipsychotic medications” (The Cincinnati Children's Hospital Research Foundation, priority 1999, dated 2002)
Read-outs that look alike come from different tables or passages of the source.

Key:
[1] = cited from earlier work
[2] = test system: Bulimia Nervosa
[3] = some mammals; cited from earlier work
[4] = test system: Bulimia Nervosa; experiment: therapeutic trial of an antidepressant (fluoxetine) before the risperidone trial, same patient; type: in vivo, human; settings: fluoxetine 20 mg PO qam, approximately 4 months
[5] = week four, risperidone 1.5 mg PO at bedtime, fluoxetine 20 mg PO QAM continued

Cc1nc2n(c(=O)c1CCN1CCC(c3noc4cc(F)ccc34)CC1)CCCC2 [risperidone, 3-[2-[4-(6-fluoro-1,2-benzisoxazol-3-yl)-1-piperidinyl]ethyl]-6,7,8,9-tetrahydro-2-methyl-4H-pyrido[1,2-a]pyrimidin-4-one]
weight gain ([1]; in vivo): minimal | white blood cell count ([1]; in vivo): remains unaffected | cessation of symptoms ([2]; after two weeks, risperidone 0.5 mg PO twice per day, fluoxetine 20 mg PO QAM continued): has not had any cessation of symptoms | improvement in bulimic symptomatology (journal entries) ([2]; conclusion of 8-week study, risperidone 1.5 mg PO QHS plus fluoxetine): 50% | body image scores improved ([2]; conclusion of 8-week study, risperidone 1.5 mg PO QHS plus fluoxetine, self-rating scale): 50% | differences in baseline and final scores of the anxiety and depression scales ([2]; conclusion of 8-week study, risperidone 1.5 mg PO QHS plus fluoxetine, self-rating scales): no appreciable differences | reduction in bulimic symptomatology (patient's journal) [2, 5]: 30% | side effects to the medications [2, 5]: no side effects

OCCOCCN1CCN(C2=Nc3ccccc3Sc3ccccc32)CC1 [Quetiapine, quetiapine]
cataract formation [3]: cause cataract formation

CNCCC(Oc1ccc(C(F)(F)F)cc1)c1ccccc1 (stereo not drawn) [fluoxetine]
bingeing and purging [4]: has not subsided | depressive symptoms (Zung Depression Scores and self-report) [4]: remission of depressive symptoms

Cc1cc2c(s1)Nc1ccccc1N=C2N1CCN(C)CC1 [Olanzapine, olanzapine]
weight gain ([1]; in some cases): up to 1 pound per week
